Common to all, as to type: cell-based
Data set [1] deals with T1, Nav 1.7 (Homo sapiens (Human), UniProt Q15858). The data set can be described thus: Nav 1.7 in vitro assay, IonWorks Quattro (IWQ) population patch-clamp. The settings on record: HEK 293 cells stably transfected with Nav 1.7; 26th pulse to -20 mV. (In patch-clamp work, channel activity is measured electrically.)
The target in data set [2] is T1, Nav 1.7. Description: Nav 1.7 in vitro PX assay, PatchXpress whole cell voltage clamp. The conditions noted are these: HEK 293 cells stably transfected with human Nav1.7; partially inactivated state (20 to 50% inactivation). The method in brief:
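Partially inactivated channels (20–50% inactivation at holding potential) were probed on automated patch clamp in stably transfected HEK293 cells, stepping to −10 mV for 20 msec every 10 s (0.1 Hz).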

The target in data set [3] is Nav 1.5 (Homo sapiens (Human), UniProt Q14524). The data set can be described thus: Nav 1.5 in vitro assay, IonWorks Quattro (IWQ) population patch-clamp. The settings on record: HEK 293 cells stably transfected with Nav 1.5; 26th pulse to -20 mV.

The results in this text go back to patent US9346798B2, “Dihydrobenzoxazine and tetrahydroquinoxaline sodium channel inhibitors” (AMGEN INC., priority 2012, dated 2016).

Broadly, the IC50 is the concentration at which inhibition is half-maximal. Higher therefore signals a need for much substance.

T1 sequence (Q15858 whole entry): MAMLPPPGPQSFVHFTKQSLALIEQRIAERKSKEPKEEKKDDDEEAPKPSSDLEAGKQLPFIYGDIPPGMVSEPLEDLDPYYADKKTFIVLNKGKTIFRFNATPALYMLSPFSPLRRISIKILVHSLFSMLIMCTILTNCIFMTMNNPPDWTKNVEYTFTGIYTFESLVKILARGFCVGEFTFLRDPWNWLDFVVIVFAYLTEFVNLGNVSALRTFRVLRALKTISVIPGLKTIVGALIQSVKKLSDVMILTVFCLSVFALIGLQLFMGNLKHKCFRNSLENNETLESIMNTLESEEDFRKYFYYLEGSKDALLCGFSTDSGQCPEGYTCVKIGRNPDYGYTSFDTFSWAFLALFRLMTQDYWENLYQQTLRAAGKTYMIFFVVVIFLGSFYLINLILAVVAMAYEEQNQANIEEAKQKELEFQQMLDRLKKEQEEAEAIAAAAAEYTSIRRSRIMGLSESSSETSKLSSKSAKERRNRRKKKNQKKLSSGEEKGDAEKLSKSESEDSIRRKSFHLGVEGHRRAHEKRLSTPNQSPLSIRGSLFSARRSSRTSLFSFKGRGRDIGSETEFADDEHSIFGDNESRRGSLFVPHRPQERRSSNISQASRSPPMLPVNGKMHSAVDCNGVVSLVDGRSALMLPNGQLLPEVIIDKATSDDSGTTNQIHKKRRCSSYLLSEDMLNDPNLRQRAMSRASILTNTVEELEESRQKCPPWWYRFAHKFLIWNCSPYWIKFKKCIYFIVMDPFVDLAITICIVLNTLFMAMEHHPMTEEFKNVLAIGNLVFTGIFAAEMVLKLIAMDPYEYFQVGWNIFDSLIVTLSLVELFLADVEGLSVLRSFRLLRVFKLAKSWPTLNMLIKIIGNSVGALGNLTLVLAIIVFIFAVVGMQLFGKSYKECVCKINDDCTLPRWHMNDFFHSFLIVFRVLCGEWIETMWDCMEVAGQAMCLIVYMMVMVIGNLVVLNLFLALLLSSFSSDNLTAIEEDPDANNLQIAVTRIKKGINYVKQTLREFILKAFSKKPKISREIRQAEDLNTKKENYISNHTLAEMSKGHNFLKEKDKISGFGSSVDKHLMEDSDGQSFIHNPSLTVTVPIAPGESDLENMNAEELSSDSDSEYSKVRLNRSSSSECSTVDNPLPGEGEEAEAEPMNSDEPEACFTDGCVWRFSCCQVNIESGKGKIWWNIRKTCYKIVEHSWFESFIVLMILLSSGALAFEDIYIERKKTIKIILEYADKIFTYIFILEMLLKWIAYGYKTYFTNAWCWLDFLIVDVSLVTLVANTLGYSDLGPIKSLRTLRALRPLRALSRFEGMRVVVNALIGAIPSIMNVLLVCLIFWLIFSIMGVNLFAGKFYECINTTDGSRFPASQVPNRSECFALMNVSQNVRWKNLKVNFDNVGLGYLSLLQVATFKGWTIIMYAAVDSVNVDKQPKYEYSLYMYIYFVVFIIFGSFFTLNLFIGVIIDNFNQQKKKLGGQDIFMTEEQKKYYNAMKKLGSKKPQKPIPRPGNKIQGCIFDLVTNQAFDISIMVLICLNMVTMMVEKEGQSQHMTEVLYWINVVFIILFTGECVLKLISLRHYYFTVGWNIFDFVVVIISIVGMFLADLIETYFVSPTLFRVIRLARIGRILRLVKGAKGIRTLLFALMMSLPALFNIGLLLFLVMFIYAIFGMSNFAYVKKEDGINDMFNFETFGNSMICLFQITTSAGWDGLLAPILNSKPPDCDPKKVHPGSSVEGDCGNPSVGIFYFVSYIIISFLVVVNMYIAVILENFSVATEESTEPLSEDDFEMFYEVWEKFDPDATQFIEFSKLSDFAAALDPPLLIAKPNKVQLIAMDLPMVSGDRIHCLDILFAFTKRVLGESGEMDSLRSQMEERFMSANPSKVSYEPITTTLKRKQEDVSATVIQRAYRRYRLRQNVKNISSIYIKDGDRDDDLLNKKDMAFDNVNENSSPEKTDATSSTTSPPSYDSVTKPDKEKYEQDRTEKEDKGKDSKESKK
Chain of Nav 1.5 (Q14524 whole entry): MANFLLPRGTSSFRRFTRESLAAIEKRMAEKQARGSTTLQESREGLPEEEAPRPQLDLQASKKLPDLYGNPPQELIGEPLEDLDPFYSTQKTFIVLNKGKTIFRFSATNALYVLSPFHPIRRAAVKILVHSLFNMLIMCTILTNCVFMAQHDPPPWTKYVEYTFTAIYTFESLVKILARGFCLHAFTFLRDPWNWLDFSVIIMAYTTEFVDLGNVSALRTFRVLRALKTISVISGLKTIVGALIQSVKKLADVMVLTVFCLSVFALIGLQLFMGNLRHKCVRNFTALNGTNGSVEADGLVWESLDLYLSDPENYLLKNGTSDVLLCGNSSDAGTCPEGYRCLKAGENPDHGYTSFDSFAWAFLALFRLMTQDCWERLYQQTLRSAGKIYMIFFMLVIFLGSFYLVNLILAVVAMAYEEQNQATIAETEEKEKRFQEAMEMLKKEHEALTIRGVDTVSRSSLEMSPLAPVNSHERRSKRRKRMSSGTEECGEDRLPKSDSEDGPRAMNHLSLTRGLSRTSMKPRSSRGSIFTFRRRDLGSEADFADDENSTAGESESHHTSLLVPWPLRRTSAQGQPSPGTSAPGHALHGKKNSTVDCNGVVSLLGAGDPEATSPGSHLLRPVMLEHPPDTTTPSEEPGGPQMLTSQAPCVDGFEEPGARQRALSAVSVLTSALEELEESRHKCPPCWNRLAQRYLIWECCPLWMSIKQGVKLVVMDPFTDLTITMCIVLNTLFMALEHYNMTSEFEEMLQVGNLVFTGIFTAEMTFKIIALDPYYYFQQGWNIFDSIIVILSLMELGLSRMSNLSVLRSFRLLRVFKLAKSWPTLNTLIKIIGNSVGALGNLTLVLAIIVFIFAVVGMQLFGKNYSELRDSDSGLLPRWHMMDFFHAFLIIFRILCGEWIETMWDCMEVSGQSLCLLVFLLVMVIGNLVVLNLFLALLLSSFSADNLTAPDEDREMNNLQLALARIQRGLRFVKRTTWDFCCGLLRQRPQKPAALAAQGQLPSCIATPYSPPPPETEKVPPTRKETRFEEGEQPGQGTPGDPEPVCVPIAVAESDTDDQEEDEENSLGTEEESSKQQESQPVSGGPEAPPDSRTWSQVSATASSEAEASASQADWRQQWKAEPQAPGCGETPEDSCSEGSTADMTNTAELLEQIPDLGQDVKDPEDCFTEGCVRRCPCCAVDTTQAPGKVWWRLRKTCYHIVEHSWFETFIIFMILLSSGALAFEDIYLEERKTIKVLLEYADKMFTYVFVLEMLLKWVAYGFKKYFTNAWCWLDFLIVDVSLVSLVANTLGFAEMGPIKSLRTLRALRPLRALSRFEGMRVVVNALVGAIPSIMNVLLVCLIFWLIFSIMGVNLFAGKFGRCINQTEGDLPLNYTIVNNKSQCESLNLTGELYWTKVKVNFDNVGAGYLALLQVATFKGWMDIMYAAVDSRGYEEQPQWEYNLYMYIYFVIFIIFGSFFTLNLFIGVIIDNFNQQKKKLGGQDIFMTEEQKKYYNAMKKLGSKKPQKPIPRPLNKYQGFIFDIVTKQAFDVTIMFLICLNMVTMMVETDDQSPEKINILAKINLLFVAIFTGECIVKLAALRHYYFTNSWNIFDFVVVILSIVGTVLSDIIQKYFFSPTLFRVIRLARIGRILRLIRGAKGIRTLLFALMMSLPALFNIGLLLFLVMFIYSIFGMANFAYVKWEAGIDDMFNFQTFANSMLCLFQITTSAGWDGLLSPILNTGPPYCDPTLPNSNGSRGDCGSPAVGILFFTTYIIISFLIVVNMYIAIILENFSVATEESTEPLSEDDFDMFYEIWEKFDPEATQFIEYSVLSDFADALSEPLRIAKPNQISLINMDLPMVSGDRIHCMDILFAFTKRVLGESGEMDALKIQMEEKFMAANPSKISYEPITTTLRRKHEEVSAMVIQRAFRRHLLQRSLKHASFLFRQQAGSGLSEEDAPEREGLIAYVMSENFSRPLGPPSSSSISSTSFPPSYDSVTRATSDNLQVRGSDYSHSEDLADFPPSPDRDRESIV

Take `CN1CC=C(c2cc(C(F)(F)F)ccc2N2CCOc3cc(S(=O)(=O)Nc4ncns4)ccc32)CC1` [Example 22, 4-(2-(1-Methyl-1,2,3,6-Tetrahydropyridin-4-Yl)-4-(Trifluoromethyl)Phenyl)-N-(1,2,4-Thiadiazol-5-Yl)-3,4-Dihydro-2H-Benzo[B][1,4]Oxazine-7-Sulfonamide 2,2,2-Trifluoroacetate]: the 50% inhibitory concentration (IC50) was 10.5 nM in data set [1], 134 nM in data set [2] and above 10000 nM in data set [3].

For the compound `O=S(=O)(Nc1ncns1)c1ccc2c(c1)OCCN2c1ccc(C(F)(F)F)cc1-c1cncnc1` [Example 23, 4-(2-(Pyrimidin-5-Yl)-4-(Trifluoromethyl)Phenyl)-N-(1,2,4-Thiadiazol-5-Yl)-3,4-Dihydro-2H-Benzo[B][1,4]Oxazine-7-Sulfonamide], the IC50 in data set [1] came to 29.8 nM; in data set [2], 659 nM; in data set [3] it was 5410 nM.

Take `O=S(=O)(Nc1ncco1)c1ccc2c(c1)OCCN2c1ccc(C(F)(F)F)cc1Cl` [Example 24, 4-(2-Chloro-4-(Trifluoromethyl)Phenyl)-N-(Oxazol-2-Yl)-3,4-Dihydro-2H-Benzo[B][1,4]Oxazine-7-Sulfonamide]: the IC50 in data set [1] was 834 nM; in data set [2] it was 4270 nM; in data set [3], above 10000 nM.

Regarding `O=S(=O)(Nc1ncns1)c1ccc2c(c1)OCCN2c1ccc(C(F)(F)F)cc1C1=CCOCC1` [Example 25, 4-(2-(3,6-Dihydro-2H-Pyran-4-Yl)-4-(Trifluoromethyl)Phenyl)-N-(1,2,4-Thiadiazol-5-Yl)-3,4-Dihydro-2H-Benzo[B][1,4]Oxazine-7-Sulfonamide], the IC50 in data set [1] worked out at 12.3 nM; in data set [2] it was 146 nM; in data set [3], 214 nM.

Turning to `O=S(=O)(Nc1ncns1)c1ccc2c(c1)OCCN2c1ccc(C(F)(F)F)cc1-c1ccncc1` [Example 26, 4-(2-(Pyridin-4-Yl)-4-(Trifluoromethyl)Phenyl)-N-(1,2,4-Thiadiazol-5-Yl)-3,4-Dihydro-2H-Benzo[B][1,4]Oxazine-7-Sulfonamide], the IC50 in data set [1] came to 10.5 nM; in data set [2] it was 102 nM; in data set [3] it was 306 nM.

Turning to `O=S(=O)(Nc1cccnn1)c1ccc2c(c1)OCCN2c1ccc(C(F)(F)F)cc1Cl` [Example 27, 4-(2-Chloro-4-(Trifluoromethyl)Phenyl)-N-(Pyridazin-3-Yl)-3,4-Dihydro-2H-Benzo[B][1,4]Oxazine-7-Sulfonamide], the values for the concentration for half-maximal inhibition (IC50) in data set [1], in data set [2] and in data set [3] were 1250 nM, 10700 nM and above 10000 nM, respectively.

As for `O=S(=O)(Nc1nncs1)c1ccc2c(c1)OCCN2c1ccc(C(F)(F)F)cc1Cl` [Example 28, 4-(2-Chloro-4-(Trifluoromethyl)Phenyl)-N-(1,3,4-Thiadiazol-2-Yl)-3,4-Dihydro-2H-Benzo[B][1,4]Oxazine-7-Sulfonamide], the IC50 was 656 nM in data set [1], 2650 nM in data set [2] and above 10000 nM in data set [3].

Regarding `Nc1cc(-c2cc(C(F)(F)F)ccc2N2CCOc3cc(S(=O)(=O)Nc4ncns4)ccc32)ccn1` [Example 29, 4-(2-(2-Aminopyridin-4-Yl)-4-(Trifluoromethyl)Phenyl)-N-(1,2,4-Thiadiazol-5-Yl)-3,4-Dihydro-2H-Benzo[B][1,4]Oxazine-7-Sulfonamide], the half-maximal inhibitory concentration (IC50) was determined as 9.5 nM in data set [1], 79 nM in data set [2] and 634 nM in data set [3].

Turning to `O=S(=O)(Nc1ncns1)c1ccc2c(c1)OCCN2c1ccccc1` [Example 30, 4-Phenyl-N-(1,2,4-Thiadiazol-5-Yl)-3,4-Dihydro-2H-Benzo[B][1,4]Oxazine-7-Sulfonamide], the IC50 in data set [1] is 142 nM; in data set [2], 756 nM; in data set [3] it was above 10000 nM.

Consider `N#Cc1cc(C(F)(F)F)ccc1N1CCOc2cc(S(=O)(=O)Nc3ncns3)ccc21` [Example 31, 4-(2-Cyano-4-(Trifluoromethyl)Phenyl)-N-(1,2,4-Thiadiazol-5-Yl)-3,4-Dihydro-2H-Benzo[B][1,4]Oxazine-7-Sulfonamide], for which the IC50 in data set [1] amounted to 16 nM; in data set [2], 91.4 nM; in data set [3], 1460 nM.
